According to US20120135923A1, “Use of Melanocortins to Treat Dyslipidemia” (IPSEN PHARMA, S.A.S., priority 2009, published 2012):
Read-outs that look alike come from different tables or passages of the source. Blank lines part the entries; values can stand above or below the compound they belong to. Bridge positions count the residues as written; N and C are the ends. Square brackets hold non-standard residues; d marks the D form. Peptide text beside a SMILES is read from it. Nle = CCCC[C@H](N)C(=O)O; GABA = NCCCC(=O)O

Assays:
hMC1-R [1] = biological target: T1, hMC1-R (Homo sapiens, UniProt Q01726); assay: Radioligand binding assay, [125I]-NDP-α-MSH competition, CHO-K1 membranes
T1 construct: expressed in transfected cells; host or cells: CHO-K1
Method: (§1) Cellular membranes used for the in vitro receptor binding assays were obtained from transgenic CHO-K1 cells stably expressing hMC-R receptor subtypes 1, 3, 4 or 5. […] The pellets were resuspended in the same buffer and centrifuged at 50,000 g for 10 minutes at approximately 4° C. The washed pellets containing the cellular membranes were stored at approximately −80° C.
(§2) Cell membranes (1-10 μg protein/well) prepared as described above were incubated in 50 mM Tris-HCl at pH 7.4 containing 0.2% bovine serum albumin (BSA), 5 mM MgCl2, 1 mM CaCl2 and 0.1 mg/mL bacitracin, with increasing concentrations of the test compound and 0.1-0.3 nM [^25I]-NDP-α-MSH for approximately 90-120 minutes at approximately 37° C. […] Filters were washed three times with 50 mM Tris-HCl at pH 7.4 at a temperature of approximately 0-4° C. and then assayed for radioactivity using a Packard Topcount® scintillation counter. Binding data were analyzed by computer-assisted non-linear regression analysis (XL fit; IDBS).

hMC1-R [2] = biological target: T1, hMC1-R; assay: cyclic AMP bioassay (ECL) in CHO-K1 cells; type: cell-based
hMC5-R [3] = biological target: T2, hMC5-R (Homo sapiens, UniProt P33032); assay: Radioligand binding assay, [125I]-NDP-α-MSH competition, CHO-K1 membranes
T2 construct: expressed in transfected cells; host or cells: CHO-K1
Method: as §1, §2

hMC5-R [4] = biological target: T2, hMC5-R; assay: cyclic AMP bioassay (ECL) in CHO-K1 cells; type: cell-based
hMC3-R = biological target: T3, hMC3-R (Homo sapiens, UniProt P41968); assay: cyclic AMP bioassay (ECL) in CHO-K1 cells; type: cell-based
T3 construct: expressed in transfected cells; host or cells: CHO-K1

hMC4-R = biological target: T4, hMC4-R (Homo sapiens, UniProt P32245); assay: cyclic AMP bioassay (ECL) in CHO-K1 cells; type: cell-based
T4 construct: expressed in transfected cells; host or cells: CHO-K1
T4 sequence (P32245 whole entry): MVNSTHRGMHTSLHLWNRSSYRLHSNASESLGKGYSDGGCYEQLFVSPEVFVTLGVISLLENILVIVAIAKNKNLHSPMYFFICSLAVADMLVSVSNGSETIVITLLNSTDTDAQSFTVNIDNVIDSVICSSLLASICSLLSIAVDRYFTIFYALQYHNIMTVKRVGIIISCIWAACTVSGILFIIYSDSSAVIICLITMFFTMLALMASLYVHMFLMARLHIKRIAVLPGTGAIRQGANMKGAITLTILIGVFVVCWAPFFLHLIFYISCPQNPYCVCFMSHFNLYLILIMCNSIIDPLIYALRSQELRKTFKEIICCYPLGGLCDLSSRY

T1 sequence (Q01726 whole entry): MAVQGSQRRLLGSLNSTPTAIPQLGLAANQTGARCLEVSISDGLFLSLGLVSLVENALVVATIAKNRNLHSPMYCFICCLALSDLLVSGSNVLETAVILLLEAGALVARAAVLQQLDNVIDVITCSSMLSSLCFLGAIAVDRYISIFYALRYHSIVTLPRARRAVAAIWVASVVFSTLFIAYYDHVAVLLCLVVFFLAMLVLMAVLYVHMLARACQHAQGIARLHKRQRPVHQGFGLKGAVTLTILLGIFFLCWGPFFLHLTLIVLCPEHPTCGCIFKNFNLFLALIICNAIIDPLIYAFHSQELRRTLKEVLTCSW
T2 sequence (P33032 whole entry): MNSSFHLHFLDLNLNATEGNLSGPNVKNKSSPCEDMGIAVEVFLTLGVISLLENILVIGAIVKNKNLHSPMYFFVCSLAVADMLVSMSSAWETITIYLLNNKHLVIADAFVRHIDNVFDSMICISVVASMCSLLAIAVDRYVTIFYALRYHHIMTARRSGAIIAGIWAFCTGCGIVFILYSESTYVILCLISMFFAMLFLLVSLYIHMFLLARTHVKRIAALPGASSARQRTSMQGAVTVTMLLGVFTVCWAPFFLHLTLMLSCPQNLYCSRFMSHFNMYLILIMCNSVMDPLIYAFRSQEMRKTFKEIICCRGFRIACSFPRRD
T3 sequence (P41968 whole entry): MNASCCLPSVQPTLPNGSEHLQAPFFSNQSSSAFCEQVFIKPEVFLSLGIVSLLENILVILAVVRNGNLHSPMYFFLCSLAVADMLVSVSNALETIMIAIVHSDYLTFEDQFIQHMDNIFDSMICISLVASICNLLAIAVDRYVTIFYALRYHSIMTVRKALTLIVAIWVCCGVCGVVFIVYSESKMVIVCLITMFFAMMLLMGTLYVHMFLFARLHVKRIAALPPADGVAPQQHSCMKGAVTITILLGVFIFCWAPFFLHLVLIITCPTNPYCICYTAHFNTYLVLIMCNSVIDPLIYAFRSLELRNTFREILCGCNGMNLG

Structure (SMILES): CCCC[C@H](NC(C)=O)C(=O)N[C@H]1CC(=O)NCCCC[C@@H](C(N)=O)NC(=O)CCNC(=O)[C@H](Cc2c[nH]c3ccccc23)NC(=O)[C@H](CCCNC(=N)N)NC(=O)[C@@H](Cc2ccc3ccccc3c2)NC(=O)[C@H](Cc2c[nH]cn2)NC1=O [Ac-Nle-c(Asp-His-D-2-Nal-Arg-Trp-β-Ala-Lys)-NH2]
Ki (hMC1-R [1]; Table 5, read-out: Ki hMC1-R): 0.648 nM
EC50 (hMC1-R [2]; Table 9C/9D, read-out: EC50 hMC1-R): 0.913 nM

Structure (SMILES): CCCC[C@H](NC(C)=O)C(=O)N[C@H]1CSSC[C@@H](C(N)=O)NC(=O)[C@H](Cc2c[nH]c3ccccc23)NC(=O)[C@H](CCCNC(=N)N)NC(=O)[C@@H](Cc2ccccc2)NC(=O)[C@H](Cc2c[nH]cn2)NC(=O)[C@@H](C(C)(C)C)NC1=O [Ac-Nle-c(Cys-D-Tle-His-D-Phe-Arg-Trp-Cys)-NH2]
Ki (hMC1-R [1]; Table 5, read-out: Ki hMC1-R): 12 nM
Ki (hMC5-R [3]; Table 5, read-out: Ki hMC5-R): 40 nM

Structure (SMILES): CCCC[C@H](NC(C)=O)C(=O)N[C@H]1CSSC[C@@H](C(N)=O)NC(=O)CCNC(=O)[C@@H](Cc2c[nH]c3ccccc23)NC(=O)[C@H](CCCNC(=N)N)NC(=O)[C@@H](Cc2ccccc2)NC(=O)[C@H](Cc2c[nH]cn2)NC1=O [Ac-Nle-c(Cys-His-D-Phe-Arg-D-Trp-β-Ala-Cys)-NH2]
Ki (hMC1-R [1]; Table 5, read-out: Ki hMC1-R): 0.323 nM

Structure (SMILES): CC(=O)N[C@H](C(=O)N[C@H]1CSSC[C@@H](C(N)=O)NC(=O)CCCNC(=O)[C@H](Cc2c[nH]c3ccccc23)NC(=O)[C@H](CCCNC(=N)N)NC(=O)[C@@H](Cc2ccccc2)NC(=O)[C@H](Cc2c[nH]cn2)NC1=O)C(C)C [Ac-Val-c(Cys-His-D-Phe-Arg-Trp-Gaba-Cys)-NH2] (Ac-VCH[dF]RW[GABA]C-NH2; disulfide 2-8 (inferred))
Ki (hMC1-R [1]; Table 5, read-out: Ki hMC1-R): 0.256 nM

Structure (SMILES): C[C@H]1NC(=O)[C@@H](NC(=O)CN2C(=O)N[C@@H](CCCNC(=N)N)C2=O)CSSC[C@@H](C(N)=O)NC(=O)[C@H](Cc2c[nH]c3ccccc23)NC(=O)[C@H](CCCNC(=N)N)NC(=O)[C@@H](Cc2ccc3ccccc3c2)NC(=O)[C@H](Cc2cnc[nH]2)NC1=O [Hydantoin(C(O)-(Arg-Gly))-c(Cys-D-Ala-His-D-2-Nal-Arg-Trp-Cys)-NH2]
Ki (hMC5-R [3]; Ki hMC5, Table 7): 14.6 nM
EC50 (hMC5-R [4]): 103 nM
EC50 (hMC3-R): 13.1 nM
EC50 (hMC4-R): 21.2 nM
EC50 (hMC1-R [2]): 96.6 nM

Structure (SMILES): C[C@H]1NC(=O)[C@@H](NC(=O)CN2C(=O)CNC2=O)CSSC[C@@H](C(N)=O)NC(=O)[C@H](Cc2c[nH]c3ccccc23)NC(=O)[C@H](CCCNC(=N)N)NC(=O)[C@@H](Cc2ccccc2)NC(=O)[C@H](Cc2cnc[nH]2)NC1=O [Hydantoin(C(O)-(Gly-Gly))-c(Cys-D-Ala-His-D-Phe-Arg-Trp-Cys)-NH2]
Ki (hMC5-R [3]; Ki hMC5, Table 7): 50 nM
EC50 (hMC5-R [4]): 201 nM
EC50 (hMC3-R): 2.46 nM
EC50 (hMC4-R): 0.336 nM
EC50 (hMC1-R [2]): 14.2 nM

The next lines start with the values.

Ki (hMC1-R [1]; Table 7, read-out: Ki hMC1): 14.3 nM
EC50 (hMC3-R; Table 11, read-out: EC50 hMC3): 12.2 nM
EC50 (hMC4-R; Table 11, read-out: EC50 hMC4): 0.177 nM
EC50 (hMC1-R [2]; Table 11, read-out: EC50 hMC1): 54.3 nM
Structure (SMILES): CCCC[C@@H]1NC(=O)N(CC(=O)N[C@H]2CSSC[C@@H](C(N)=O)NC(=O)[C@H](Cc3c[nH]c4ccccc34)NC(=O)[C@H](CCCNC(=N)N)NC(=O)[C@@H](Cc3ccccc3)NC(=O)[C@H](Cc3cnc[nH]3)NC(=O)[C@H](CCC(=O)O)NC2=O)C1=O [Hydantoin(C(O)-(Nle-Gly))-c(Cys-Glu-His-D-Phe-Arg-Trp-Cys)-NH2]

Ki (hMC1-R [1]; Table 5, read-out: Ki hMC1-R): 0.05 nM
EC50 (hMC5-R [4]; Table 9A/9B, read-out: EC50 hMC5-R): 1.7 nM
EC50 (hMC3-R; Table 9A/9B, read-out: EC50 hMC3-R): 0.1 nM
EC50 (hMC4-R; Table 9A/9B, read-out: EC50 hMC4-R): 0.021 nM
EC50 (hMC1-R [2]; Table 9A/9B, read-out: EC50 hMC1-R): 0.37 nM
Structure (SMILES): CCCC[C@H](N)C(=O)N[C@H]1CSSC[C@@H](C(N)=O)NC(=O)CCCNC(=O)[C@H](Cc2c[nH]c3ccccc23)NC(=O)[C@H](CCCNC(=N)N)NC(=O)[C@@H](Cc2ccccc2)NC(=O)[C@H](Cc2c[nH]cn2)NC1=O [Nle-c(Cys-His-D-Phe-Arg-Trp-Gaba-Cys)-NH2] (H-[Nle]CH[dF]RW[GABA]C-NH2; disulfide 2-8)
